In general, IC50 refers to the midpoint of a concentration-inhibition curve. The inhibition is the drop in the measured response relative to a control, in per cent. Low readings indicate a response near the control, high ones a response far below the control.

≈ marks a conversion by molar mass, not a printed value. Where only a bound is given, the exact number is not on record here.

Experiment [1] deals with Plasmodium falciparum. As to the kind of experiment: Growth inhibition of Plasmodium falciparum 3D7 infected red blood cells. Type of experiment: functional. To be noted: read-out: ED50 (the source's name).
For experiment [2], the target named is Protein farnesyltransferase (Homo sapiens, UniProt P49354+P49356). As to the kind of experiment: Inhibition of mammalian Farnesyltransferase. Type of experiment: protein-complex assay.
Experiment [3] has as its target Protein farnesyltransferase (Mus musculus, UniProt Q61239+Q8K2I1). As to the kind of experiment: Inhibition of mammalian H-Ras processing in NIH 3T3 cells. Type of experiment: functional, cell-based, NIH3T3.
In experiment [4] the test system is Plasmodium falciparum. As to the kind of experiment: Percent growth inhibition of Plasmodium falciparum 3D7 in erythrocytes at 20 uM. Type of experiment: functional.
The test system of experiment [5] is Plasmodium falciparum. The experiment can be described thus: Inhibition of Plasmodium falciparum 3D7 infected red blood cells. Type of experiment: functional. The settings on record: read-out: ED50 (the source's name).

Consider `COC(=O)[C@H](CCSC)NC(=O)c1ccc(CNCc2c[nH]cn2)cc1-c1ccccc1C`, for which, in the experiment on Plasmodium falciparum [1], the EC50 worked out at 2 µg/mL (≈ 4.29 µM). Also, the half-inhibitory concentration (IC50) in experiment [2] came to 34000 nM; in experiment [3], 20 nM. This compound also gave an inhibition at 20 µM with Plasmodium falciparum [4] of 99%.
As to `N#Cc1ccc(Cn2cncc2CNc2ccc(C(=O)NCc3ccccc3)c(-c3ccccc3)c2)cc1`, the EC50 with Plasmodium falciparum [1] is 4 µg/mL (≈ 8.04 µM). Also, in experiment [2], the IC50 turned out to be 640 nM.
With `CSCC[C@H](NC(=O)c1ccc(NCc2cncn2Cc2ccc(C#N)cc2)cc1-c1ccccc1)C(=O)O`, the EC50 with Plasmodium falciparum [1] came out at 13 µg/mL (≈ 24.1 µM). The IC50 in experiment [2] was 7.2 nM; in experiment [3], 5000 nM. In the experiment on Plasmodium falciparum [4], this compound registered an inhibition at 20 µM of 86.3%.
The corresponding values for `CSCC[C@H](NC(=O)c1ccc(NCc2cn(Cc3cccc4ccccc34)cn2)cc1-c1ccccc1)C(=O)O` are 10 µg/mL (≈ 17.7 µM), 3000 nM, > 100000 nM and 19.4%.
Consider `N#Cc1ccc(Cn2cncc2CNc2ccc(C(=O)NCC3CCCCC3)c(-c3ccccc3)c2)cc1`, for which, in the experiment with Plasmodium falciparum [1], the EC50 came out at 3 µg/mL (≈ 5.96 µM). The IC50 in experiment [2] is 3100 nM; in experiment [3], > 100000 nM.
Turning to `CSCC[C@H](NC(=O)c1ccc(NCc2cn(Cc3ccc(-c4ccccc4)cc3)cn2)cc1-c1ccccc1)C(=O)O`, the EC50 in the experiment on Plasmodium falciparum [1] stood at 12 µg/mL (≈ 20.3 µM). Further, the IC50 is 6000 nM in experiment [2] and > 100000 nM in experiment [3].
Take `CSCC[C@H](NC(=O)c1ccc(NCc2cn(CC3CCCCC3)cn2)cc1-c1ccccc1)C(=O)O`: the EC50 in the experiment with Plasmodium falciparum [1] was > 30 µg/mL. This compound also gave an IC50 in experiment [2] of 780 nM.
For `CSCC[C@H](NC(=O)c1ccc(NCc2cncn2Cc2ccc(-c3ccccc3)cc2)cc1-c1ccccc1)C(=O)O`, the EC50 with Plasmodium falciparum [1] was determined as 5 µg/mL (≈ 8.46 µM). In addition, the figures for the IC50 in experiment [2] and in experiment [3] were 260 nM and > 100000 nM, respectively. The inhibition at 20 µM in the experiment on Plasmodium falciparum [4] came to 89.1%.
With `N#CCCNC(=O)c1ccc(NCc2cncn2Cc2ccc(C#N)cc2)cc1-c1ccccc1`, the EC50 with Plasmodium falciparum [1] came to 10 µg/mL (≈ 21.7 µM). The compound further displayed an IC50 in experiment [2] of 220 nM.
With `CSCC[C@H](NC(=O)c1ccc(CNCc2c[nH]cn2)cc1-c1ccccc1C)C(=O)O`, the EC50 with Plasmodium falciparum [1] was > 30 µg/mL. For the same compound, the IC50 turned out to be 1 nM in experiment [2] and 200 nM in experiment [3]. The inhibition at 20 µM in the experiment with Plasmodium falciparum [4] was found to be 0%.
`CC(C)NC(=O)c1ccc(NCc2cncn2Cc2ccc(C#N)cc2)cc1-c1ccccc1`: the EC50 in the experiment on Plasmodium falciparum [1] came to 3 µg/mL (≈ 6.67 µM). The 50% inhibitory concentration (IC50) in experiment [2] was 380 nM; in experiment [3], > 100000 nM.
Regarding `CSCC[C@H](NC(=O)c1ccc(NCc2cncn2CC2CCCCC2)cc1-c1ccccc1)C(=O)O`, in the experiment with Plasmodium falciparum [1], the EC50 was 10 µg/mL (≈ 19.2 µM). This compound also returned an IC50 in experiment [2] of 41 nM. The compound also gave an inhibition at 20 µM in the experiment with Plasmodium falciparum [4] of 72%.
In the case of `CSCC[C@H](NC(=O)c1ccc(NC[C@@H](N)CS)cc1-c1ccccc1)C(=O)O`, the EC50 in the experiment with Plasmodium falciparum [5] was > 30 µg/mL.

Source of the values: ChEMBL document CHEMBL1134231, “Peptidomimetic inhibitors of protein farnesyltransferase show potent antimalarial activity” (Bioorg Med Chem Lett, 2001).
